Test results taken from US8580825B2, “Oxadiazole inhibitors of leukotriene production” (Boehringer Ingelheim International GmbH, priority 2010, dated 2013).

What was measured:
[1] = system: synthesis of LTB4 in human whole blood; experiment: human whole blood LTB4 production inhibition assay; format: cell-based; conditions: calcimycin stimulated, read-out: hWB LTB4 IC50
In short: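 Whole-blood cellular format, heparinized human donors: 15 min compound pretreatment, then 30 min calcimycin stimulation (20 μM final), both at 37° C. Low-speed centrifugation yields plasma, in which LTB4 is read by homogeneous time-resolved fluorescence immunoassay.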

[2] = target: T1, recombinant human FLAP protein (Homo sapiens, UniProt P20292); experiment: FLAP binding assay (Scintillation Proximity Assay, displacement of [125I]L-691,831); conditions: read-out: FLAP SPA IC50
T1 construct: made in house; host or cells: Sf9 insect cells (100,000xg membrane fraction used)
T1 sequence (P20292 1-161): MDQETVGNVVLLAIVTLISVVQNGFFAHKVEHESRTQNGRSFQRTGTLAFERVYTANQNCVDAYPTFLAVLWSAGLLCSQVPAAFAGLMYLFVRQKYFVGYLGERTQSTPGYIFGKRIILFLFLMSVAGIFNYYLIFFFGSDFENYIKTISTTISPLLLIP
In short: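 Scintillation proximity displacement of [125I]L-691,831 (0.08 nM) from membranes of sf9 cells expressing recombinant human FLAP (5 μg/well) on WGA SPA beads, pH 7.5 Tris buffer. Plates shaken 2 h before counting. Non-specific binding defined with 10 μM unlabelled L-691,831.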

Q: Which results are given for COC(=O)C(C)(C)n1cc(-c2nc(C(C)(C)c3ccc(-c4cnc(N)nc4)nc3)no2)cn1 [Example 90, methyl 2-[4-(3-{2-[6-(2-aminopyrimidin-5-yl)pyridin-3-yl]propan-2-yl}-1,2,4-oxadiazol-5-yl)-1H-pyrazol-1-yl]-2-methylpropanoate]?
A: IC50 [1]: 950 nM; IC50 [2]: 140 nM

Q: Which results are given for COCCOCCn1cc(-c2nc(C(C)(C)c3ccc(-c4cnc(N)nc4)nc3)no2)cn1 [Example 91, 5-{5-[2-(5-{1-[2-(2-methoxyethoxy)ethyl]-1H-pyrazol-4-yl}-1,2,4-oxadiazol-3-yl)propan-2-yl]pyridin-2-yl}pyrimidin-2-amine]?
A: IC50 [1]: 1500 nM; IC50 [2]: 300 nM

Q: Which IC50 [1] does the source give for CC(C)Nc1cnc(-c2nc([C@@](C)(c3ccc(-c4cnc(N)nc4)nc3)C(C)C)no2)cn1 [Example 92, 5-[5-{(R)-1-[5-(5-Isopropylamino-pyrazin-2-yl)-[1,2,4]oxadiazol-3-yl]-1,2-dimethyl-propyl}-pridin-2-yl)-pyrimidin-2-ylamine] here?
A: 92 nM

Q: What about the IC50 [2] of the same compound?
A: 15 nM

Q: Which results are given for CC(C)Nc1cnc(-c2nc([C@](C)(c3ccc(-c4cnc(N)nc4)nc3)C(C)C)no2)cn1 [Example 93, 5-(5-{(S)-1-[5-(5-Isopropylamino-pyrazin-2-yl)-[1,2,4]oxadiazol-3-yl]-1,2-dimethyl-propyl}-pyridin-2-yl)-pyrimidin-2-ylamine]?
A: IC50 [1]: 28 nM; IC50 [2]: 21 nM

Q: For CC(C)[C@](C)(c1ccc(-c2cnc(N)nc2)nc1)c1noc(-c2cnc(NC(C)(C)CO)cn2)n1 [Example 94, 2-[5-(3-{(R)-1-[6-(2-Amino-pyrimidin-5-yl)-pyridin-3-yl]-1,2-dimethyl-propyl}-[1,2,4]oxadiazol-5-yl)-pyrazin-2-ylamino]-2-methyl-propan-1-ol], which IC50 [1] is on record?
A: 74 nM

Q: And the IC50 [2]?
A: 26 nM

Q: How did the IC50 [1] turn out when CC(C)[C@@](C)(c1ccc(-c2cnc(N)nc2)nc1)c1noc(-c2cnc(NC(C)(C)CO)cn2)n1 [Example 95, 2-[5-(3-{(S)-1-[6-(2-Amino-pyrimidin-5-yl)-pyridin-3-yl]-1,2-dimethyl-propyl}-[1,2,4]oxadiazol-5-yl)-pyrazin-2-ylamino]-2-methyl-propan-1-ol] was run?
A: 210 nM

Q: And the IC50 [2]?
A: 92 nM

Q: What does the source list for CC(C)[C@](C)(c1ccc(-c2cnc(N)nc2)nc1)c1noc(-c2cnn(C3CCS(=O)(=O)C3)c2)n1 (stereo partly drawn) [Example 96, 5-[5-((R)-1-{5-[1-(1,1-Dioxo-tetrahydro-116-thiophen-3-yl)-1H-pyrazol-4-yl]-[1,2,4]oxadiazol-3-yl}-1,2-dimethyl-propyl)-pyridin-2-yl]-pyrimidin-2-ylamine]?
A: IC50 [1]: 240 nM; IC50 [2]: 9.9 nM

Q: CC(C)[C@](C)(c1ccc(-c2cnc(N)nc2)nc1)c1noc(-c2cnn(CCN(C)C)c2)n1 [Example 97, 5-[5-((R)-1-{5-[1-(2-Dimethylamino-ethyl)-1H-pyrazol-4-yl]-[1,2,4]oxadiazol-3-yl}-1,2-dimethyl-propyl)-pyridin-2-yl]-pyrimidin-2-ylamine] was tested. Which IC50 [1] did it give?
A: 30 nM

Q: And the IC50 [2]?
A: 7.9 nM

Q: With CC(c1ccc(-c2ccc(N)nc2)nc1)(c1noc(-c2cn[nH]c2)n1)C1CC1 (stereo not shown) [Example 98, 5-{1-Cyclopropyl-1-[5-(1H-pyrazol-4-yl)-[1,2,4]oxadiazol-3-yl]-ethyl}-[2,3′]bipyridinyl-6′-ylamine] as the compound, how does the IC50 [1] read?
A: 500 nM

Q: And the IC50 [2]?
A: 26 nM

Q: How did the IC50 [1] turn out when CN(C)CCn1cc(-c2nc([C@@](C)(c3ccc(-c4cnc(N)nc4)nc3)C3CC3)no2)cn1 [Example 99, 5-[5-((R)-1-Cyclopropyl-1-{5-[1-(2-dimethylamino-ethyl)-1H-pyrazol-4-yl]-[1,2,4]oxadiazol-3-yl}-ethyl)-pyridin-2-yl]-pyrimidin-2-ylamine] was run?
A: 150 nM

Q: And the IC50 [2]?
A: 32 nM

Q: What does the source list for CC(C)(O)Cn1cc(-c2nc([C@@](C)(c3ccc(-c4cnc(N)cn4)nc3)C3CC3)no2)cn1 [Example 100, 1-[4-(3-{(R)-1-[6-(5-Amino-pyrazin-2-yl)-pyridin-3-yl]-1-cyclopropyl-ethyl}-[1,2,4]oxadiazol-5-yl)-pyrazol-1-yl]-2-methyl-propan-2-ol]?
A: IC50 [1]: 210 nM; IC50 [2]: 53 nM

Q: What does the source list for CC(C)(O)Cn1cc(-c2nc([C@](C)(c3ccc(-c4cnc(N)cn4)nc3)C3CC3)no2)cn1 [Example 101, 1-[4-(3-{(S)-1-[6-(5-Amino-pyrazin-2-yl)-pyridin-3-yl]-1-cyclopropyl-ethyl}-[1,2,4]oxadiazol-5-yl)-pyrazol-1-yl]-2-methyl-propan-2-ol]?
A: IC50 [1]: 990 nM; IC50 [2]: 280 nM

Q: Which IC50 [1] does the source give for CC(C)(C)NC(=O)Cn1cc(-c2nc([C@@](C)(c3ccc(-c4cnc(N)nc4)nc3)C3CC3)no2)cn1 [Example 102, 2-[4-(3-{(R)-1-[6-(2-Amino-pyrimidin-5-yl)-pyridin-3-yl]-1-cyclopropyl-ethyl}-[1,2,4]oxadiazol-5-yl)-pyrazol-1-yl]-N-tert-butyl-acetamide] here?
A: 89 nM

Q: And the IC50 [2]?
A: 13 nM

Q: How did the IC50 [1] turn out when COCCn1cc(-c2nc([C@@](C)(c3ccc(-c4cnc(N)cn4)nc3)C(C)C)no2)cn1 [Example 104, 5-[5-((R)-1-{5-[1-(2-Methoxy-ethyl)-1H-pyrazol-4-yl]-[1,2,4]oxadiazol-3-yl}-1,2-dimethyl-propyl)-pyridin-2-yl]-pyrazin-2-ylamine] was run?
A: 17 nM

Q: What about the IC50 [2] of the same compound?
A: 5.7 nM

Q: For CC(C)[C@](C)(c1ccc(-c2cnc(N)cn2)nc1)c1noc(-c2cnc(N3CCNCC3)cn2)n1 [Example 105, 5-(5-{(R)-1,2-Dimethyl-1-[5-(3,4,5,6-tetrahydro-2H-[1,2′]bipyrazinyl-5′-yl)-[1,2,4]oxadiazol-3-yl]-propyl}-pyridin-2-yl)-pyrazin-2-ylamine], which IC50 [1] is on record?
A: 450 nM

Q: And the IC50 [2]?
A: 7.8 nM

Q: With CN(C(=O)Cn1cc(-c2nc([C@@](C)(c3ccc(-c4cnc(N)nc4)nc3)C3CC3)no2)cn1)C(C)(C)C [Example 106, 2-[4-(3-{(R)-1-[6-(2-Amino-pyrimidin-5-yl)-pyridin-3-yl]-1-cyclopropyl-ethyl}-[1,2,4]oxadiazol-5-yl)-pyrazol-1-yl]-N-tert-butyl-N-methyl-acetamide] as the compound, how does the IC50 [1] read?
A: 30 nM

Q: And the IC50 [2]?
A: 10 nM

Q: What does the source list for CO[C@@H]1CCN(C(=O)Cn2cc(-c3nc([C@@](C)(c4ccc(-c5cnc(N)nc5)nc4)C4CC4)no3)cn2)C1 [Example 107, 2-[4-(3-{(R)-1-[6-(2-Amino-pyrimidin-5-yl)-pyridin-3-yl]-1-cyclopropyl-ethyl}-[1,2,4]oxadiazol-5-yl)-pyrazol-1-yl]-1-((R)-3-methoxy-pyrrolidin-1-yl)-ethanone]?
A: IC50 [1]: 220 nM; IC50 [2]: 72 nM

Q: Which results are given for COCCn1cc(-c2nc([C@](C)(c3ccc(-c4ccc(N)nc4)nc3)C3CC3)no2)cn1 [Example 108, 5-((S)-1-Cyclopropyl-1-{5-[1-(2-methoxy-ethyl)-1H-pyrazol-4-yl]-[1,2,4]oxadiazol-3-yl}-ethyl)-[2,3′]bipyridinyl-6′-ylamine]?
A: IC50 [1]: 2300 nM; IC50 [2]: 360 nM

Q: How did the IC50 [1] turn out when CC(C)(O)Cn1cc(-c2nc([C@](C)(c3ccc(-c4ccc(N)nc4)nc3)C3CC3)no2)cn1 [Example 109, 1-(4-{3-[(S)-1-(6′-Amino-[2,3′]bipyridinyl-5-yl)-1-cyclopropyl-ethyl]-[1,2,4]oxadiazol-5-yl}-pyrazol-1-yl)-2-methyl-propan-2-ol] was run?
A: 1100 nM

Q: And the IC50 [2]?
A: 350 nM

Q: Which results are given for CC(C)[C@](C)(c1ccc(-c2cnc(N)cn2)nc1)c1noc(-c2cnn(CC(C)(C)O)c2)n1 [Example 110, 1-[4-(3-{(R)-1-[6-(5-Amino-pyrazin-2-yl)-pyridin-3-yl]-1,2-dimethyl-propyl}-[1,2,4]oxadiazol-5-yl)-pyrazol-1-yl]-2-methyl-propan-2-ol]?
A: IC50 [1]: 31 nM; IC50 [2]: 5.9 nM
